The record followed here is PMC6309732 (ChemMedChem, 2016).

For data set [1], the target named is HIV-1 RT-associated RNA dependent DNA polymerase (Human immunodeficiency virus type 1 group M subtype B, UniProt P04585). The data set can be described thus: biochemical.
Data set [2] deals with T1, HIV-1 RT-associated RNase H (Human immunodeficiency virus type 1 group M subtype B, UniProt P04585). The data set can be described thus: HIV-1 DNA polymerase-independent RNase H activity determination. In kind it is biochemical.
Data set [3] has as its target T1, HIV-1 RT-associated RNase H. Kind of data set: RNase H assay with modified order of addition. In kind it is biochemical. The conditions noted are these: for Fold increase of IC50 versus the regular assay: inhibitor added after duplex substrate vs regular assay.
Data set [4] addresses HIV-1 RT heterodimer (Human immunodeficiency virus type 1 group M subtype B, UniProt P04585). Kind of data set: Differential Scanning Fluorimetry. In kind it is binding. The conditions noted are these: 10 μM inhibitor, 300 nM HIV-1 RT; data not shown. Background: DSF heats the sample and reads unfolding from a dye or from intrinsic fluorescence.
The subject of data set [5] is HIV-2 (ROD strain). Kind of data set: Antiviral assay, HIV-2. Particulars: acutely infected MT-4 cells; at concentrations less than cytotoxic. In kind it is cell-based.
Data set [6] deals with HIV-1 (IIIB strain). Kind of data set: Antiviral assay, HIV-1. In kind it is cell-based. Particulars: acutely infected MT-4 cells; at concentrations less than cytotoxic.
Data set [7] can be described thus: Cytotoxicity in mock-infected MT-4 cells. In kind it is cell-based. Particulars: human.

What is called IC50 is the concentration that inhibits the measured activity by half. As to `O=C(Nc1sc2c(c1C(=O)Nc1ccccn1)CCCCC2)c1ccccc1Br` [Compound 23, 2-(2-Bromobenzamido)-N-(pyridin-2-yl)-5,6,7,8-tetrahydro-4H-cyclohepta[b]thiophene-3-carboxamide], the IC50 in data set [1] was more than 50 µM; in data set [2], 4.57 ± 0.01 µM.

`O=C(Nc1sc2c(c1C(=O)Nc1ccccn1)CCCCC2)c1ccccc1[N+](=O)[O-]` [Compound 24, 2-(2-Nitrobenzamido)-N-(pyridin-2-yl)-5,6,7,8-tetrahydro-4H-cyclohepta[b]thiophene-3-carboxamide]: in data set [2], 53.5 ± 1.7 µM corresponded to half-maximal inhibition (IC50).

`Nc1ccccc1C(=O)Nc1sc2c(c1C(=O)Nc1ccccn1)CCCCC2` [Compound 26, 2-(2-Aminobenzamido)-N-(pyridin-2-yl)-5,6,7,8-tetrahydro-4H-cyclohepta[b]thiophene-3-carboxamide] yielded an IC50 in data set [2] of 14.9 ± 4.1 µM. This IC50 is about 3.6-fold lower than that of the compound before.

Regarding `Nc1ccc(C(=O)Nc2sc3c(c2C(=O)Nc2ccccn2)CCCCC3)cc1` [Compound 27, 2-(4-Aminobenzamido)-N-(pyridin-2-yl)-5,6,7,8-tetrahydro-4H-cyclohepta[b]thiophene-3-carboxamide], half-maximal inhibition in data set [2] (IC50) required 21.4 ± 4.4 µM.

In turn, `Cc1ccccc1C(=O)Nc1sc2c(c1C(=O)Nc1ccccn1)CCCCC2` [Compound 29, 2-(2-Methylbenzamido)-N-(pyridin-2-yl)-5,6,7,8-tetrahydro-4H-cyclohepta[b]thiophene-3-carboxamide] showed a half-inhibitory concentration (IC50) in data set [2] of 18.3 ± 1.8 µM.

Compound `COc1ccc(C(=O)Nc2sc3c(c2C(=O)Nc2ccccn2)CCCCC3)c(OC)n1` [Compound 30, 2,6-Dimethoxy-N-(3-(pyridin-2-ylcarbamoyl)-5,6,7,8-tetrahydro-4H-cyclohepta[b]thiophen-2-yl)nicotinamide] gave a half-maximal inhibitory concentration (IC50) in data set [2] of 21.5 ± 1 µM.

Usually CC50 stands for the concentration that lowers cell viability or growth by half. High values mean better tolerance by the cells, low ones harm at low concentration. Turning to `COc1ccc(C(=O)Nc2sc3c(c2C(=O)Nc2ccccn2)CCCCC3)cc1OC` [Compound 31, 2-(3,4-Dimethoxybenzamido)-N-(pyridin-2-yl)-5,6,7,8-tetrahydro-4H-cyclohepta[b]thiophene-3-carboxamide], the 50% inhibitory concentration (IC50) is 20 ± 7 µM in data set [3], more than 50 µM in data set [1] and 4.01 ± 1 µM in data set [2]. In addition, the “Fold increase of IC50 versus the regular assay” value in data set [3] was found to be 5 fold. The “Effect on Tm of the RT heterodimer” value in data set [4] is recorded as “no decreased Tm”. The “Inhibition of HIV-2 (ROD) replication” value in data set [5] is listed as “unable to affect viral replication”. Moreover, the “Inhibition of HIV-1 (IIIB) replication” value in data set [6] is “unable to affect viral replication”. Moreover, the CC50 at 5 days in data set [7] was 6.24 µM. Besides, the “Fold decrease in RNase H potency relative to compound 33” value in data set [2] (O-methylated hydroxyl groups vs catechol 33) came to 5 fold.

In data set [2], `COc1ccc(C(=O)Nc2sc3c(c2C(=O)Nc2ccccn2)CCCCC3)c(O)n1` [Compound 32, 2-Hydroxy-6-methoxy-N-(3-(pyridin-2-ylcarbamoyl)-5,6,7,8-tetrahydro-4H-cyclohepta[b]thiophen-2-yl)nicotinamide] yielded a half-inhibitory concentration (IC50) of 15.1 ± 1.3 µM.

In the case of `O=C(Nc1sc2c(c1C(=O)Nc1ccccn1)CCCCC2)c1ccc(O)c(O)c1` [Compound 33, 2-(3,4-Dihydroxybenzamido)-N-(pyridin-2-yl)-5,6,7,8-tetrahydro-4H-cyclohepta[b]thiophene-3-carboxamide], in data set [3], the IC50 is 5.3 ± 0.2 µM and the “Fold increase of IC50 versus the regular assay” value was 5 fold. For the same compound, the “Effect on Tm of the RT heterodimer” value in data set [4] was “no decreased Tm”. Also, the IC50 in data set [1] stood at 20.9 ± 1.7 µM. The “Inhibition of HIV-2 (ROD) replication” value in data set [5] is “unable to affect viral replication”. Also, the “Inhibition of HIV-1 (IIIB) replication” value in data set [6] is on record as “unable to affect viral replication”. In data set [7], this compound gave a CC50 at 5 days of 30.7 µM.

On to `O=C(Nc1sc2c(c1C(=O)Nc1ccccn1)CCCCC2)c1cccs1` [Compound 34, N-(Pyridin-2-yl)-2-(thiophene-2-carboxamido)-5,6,7,8-tetrahydro-4H-cyclohepta[b]thiophene-3-carboxamide], for which the results for the IC50 in data set [1] and in data set [2] were more than 50 µM and 10.4 ± 1.96 µM, respectively.

As to `CC(=O)Nc1sc2c(c1C(=O)Nc1ccccn1)CCCCC2` [Compound 35, 2-Acetamido-N-(pyridin-2-yl)-5,6,7,8-tetrahydro-4H-cyclohepta[b]thiophene-3-carboxamide], the IC50 in data set [2] was more than 100 µM.

Consider `O=C(Cc1ccccc1F)Nc1sc2c(c1C(=O)Nc1ccccn1)CCCCC2` [Compound 36, 2-(2-(2-Fluorophenyl)acetamido)-N-(pyridin-2-yl)-5,6,7,8-tetrahydro-4H-cyclohepta[b]thiophene-3-carboxamide], for which the half-inhibitory concentration (IC50) in data set [1] is more than 50 µM.

`O=C(Nc1sc2c(c1C(=O)Nc1ccccc1F)CCCCC2)c1ccccn1` [Compound 37, N-(3-((2-Fluorophenyl)carbamoyl)-5,6,7,8-tetrahydro-4H-cyclohepta[b]thiophen-2-yl)picolinamide] showed an IC50 in data set [2] of 13.7 ± 1.6 µM.
